# pIC50: −log10 of the molar value. Strand notation (5' to 3'): a small letter for the sugar, then the base; units joined by * are phosphorothioate-linked, units joined directly phosphodiester-linked; [ ] holds rarer units or linkages, { } end groups; capitals alone tell only the bases. e = 2'-O-(2-methoxyethyl) (MOE); k = constrained ethyl (cEt); [5mC] = 5-methylcytosine; d = 2'-deoxy (DNA); m = 2'-O-methyl
# System: Yap1 mRNA
# Test: Dose-dependent inhibition of human Yap1 in SNU-449 cells (Example 9, RTS36584)
# Format: cell-based
# Conditions: free uptake; for % UTC (Yap1 mRNA): approximately 48 hours; for pIC50: linear regression on a log/linear plot
# Method in brief: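 Read-out was Yap1 mRNA (primer-probe RTS36584) normalised to total RNA by RIBOGREEN, given as % of untreated cells, with IC50 fitted by linear regression of log/linear data. Oligonucleotides were dosed by free uptake to SNU-449 cells, 10,000/well, for ~48 h.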
Substance,% UTC (Yap1 mRNA) (31.3 nM),% UTC (Yap1 mRNA) (125.0 nM),% UTC (Yap1 mRNA) (500.0 nM),% UTC (Yap1 mRNA) (2000.00 nM),pIC50
1198213 (kA*kT*dA*dT*dT*dA*dG*dA*dG*dT*dA*eT*eG*eT*kG*kG) [compound 1198213],91 % UTC,33 % UTC,11 % UTC,3 % UTC,7.00
1198355 (kA*kA*kA*dG*dT*dG*dT*dA*dT*dG*dT*d[5mC]*kA*eG*kA*eA; antisense) [compound 1198355],63 % UTC,34 % UTC,10 % UTC,4 % UTC,7.00
1198352 (kT*kG*kT*dA*dT*dG*dT*d[5mC]*dA*dG*dA*dA*kG*eA*kG*eT; antisense) [compound 1198352],58 % UTC,29 % UTC,10 % UTC,3 % UTC,7.40
1198610 (kT*kG*kT*dA*dT*dG*dT*d[5mC]*dA*dG*dA*dA*kG*kA*kG*eT; antisense) [compound 1198610],69 % UTC,29 % UTC,7 % UTC,2 % UTC,7.00
1197271 (kT*kT*kT*dA*mA*dA*dG*dT*dG*dT*dA*dT*dG*kT*k[5mC]*kA; antisense) [compound 1197271],70 % UTC,47 % UTC,19 % UTC,8 % UTC,7.00
1198698 (kA*kA*dG*dT*dG*dT*dA*dT*dG*dT*d[5mC]*dA*kG*eA*kA*eG) [compound 1198698],55 % UTC,29 % UTC,8 % UTC,2 % UTC,7.52
1197216 (kA*kA*kA*dG*dT*dG*dT*dA*dT*dG*dT*d[5mC]*dA*kG*kA*kA; antisense) [compound 1197216],66 % UTC,39 % UTC,15 % UTC,4 % UTC,7.00
1198815 (kT*kA*dG*dA*dG*dT*dA*dT*dG*dT*dG*kG*e[5mC]*kA*eA*kT; antisense) [compound 1198815],84 % UTC,64 % UTC,34 % UTC,15 % UTC,6.70
1200788 (kG*kA*kA*dA*dT*mU*dG*dT*d[5mC]*dT*d[5mC]*dA*dT*kG*k[5mC]*k[5mC]) [compound 1200788],61 % UTC,38 % UTC,19 % UTC,9 % UTC,7.00
1198905 (kA*kT*dA*dT*dT*dA*dG*dA*dG*dT*dA*kT*dG*kT*dG*kG; antisense) [compound 1198905],75 % UTC,43 % UTC,21 % UTC,6 % UTC,7.00
1198371 (kA*dT*dT*dG*dT*d[5mC]*dT*d[5mC]*dA*dT*dG*k[5mC]*e[5mC]*kT*eT*kA; antisense) [compound 1198371],85 % UTC,66 % UTC,46 % UTC,21 % UTC,6.52
1198424 (k[5mC]*dT*d[5mC]*dT*dT*dA*dT*dA*dT*dG*dG*kT*eT*kT*eT*kG; antisense) [compound 1198424],64 % UTC,44 % UTC,24 % UTC,9 % UTC,7.00
1198457 (kA*kT*dT*dG*dT*d[5mC]*dT*d[5mC]*dA*dT*dG*e[5mC]*k[5mC]*eT*kT*eA; antisense) [compound 1198457],82 % UTC,56 % UTC,31 % UTC,12 % UTC,6.70
1198550 (kA*kT*kA*dT*dG*dG*dA*dA*dA*dT*dT*dG*kT*k[5mC]*kT*e[5mC]) [compound 1198550],73 % UTC,56 % UTC,30 % UTC,13 % UTC,6.70
1200820 (kG*kG*kA*dA*dG*mA*dT*d[5mC]*dT*dG*dA*dA*dA*k[5mC]*kT*k[5mC]; antisense) [compound 1200820],104 % UTC,69 % UTC,36 % UTC,17 % UTC,6.52
1198718 (kG*eA*kA*dA*dT*dT*dG*dT*d[5mC]*dT*d[5mC]*dA*eT*eG*k[5mC]*k[5mC]; antisense) [compound 1198718],87 % UTC,37 % UTC,14 % UTC,4 % UTC,7.00
1198917 (k[5mC]*kA*d[5mC]*dT*dT*dT*dT*dA*d[5mC]*dA*dT*kT*dA*kG*dG*kA; antisense) [compound 1198917],81 % UTC,37 % UTC,12 % UTC,6 % UTC,7.00
1198289 (kG*kG*kA*dA*dA*dT*dT*dG*dT*d[5mC]*dT*d[5mC]*kA*eT*kG*e[5mC]; antisense) [compound 1198289],72 % UTC,41 % UTC,18 % UTC,9 % UTC,7.00
1197313 (kA*kG*kT*dG*mU*dA*dT*dG*dT*d[5mC]*dA*dG*dA*kA*kG*kA; antisense) [compound 1197313],71 % UTC,38 % UTC,16 % UTC,6 % UTC,7.00
1198358 (kT*kT*kT*dA*dA*dA*dG*dT*dG*dT*dA*dT*kG*eT*k[5mC]*eA; antisense) [compound 1198358],68 % UTC,39 % UTC,20 % UTC,8 % UTC,7.00
1198958 (kT*kG*dT*dA*dT*dG*dT*d[5mC]*dA*dG*dA*kA*dG*kA*dG*kT; antisense) [compound 1198958],68 % UTC,39 % UTC,16 % UTC,5 % UTC,7.00
"1198578 (GCTTTGGAAGATCTGA; modified gapmer, chemistry not fully specified) [compound 1198578]",73 % UTC,45 % UTC,25 % UTC,12 % UTC,7.00
1200798 (kT*kA*kT*dT*dA*mG*dA*dG*dT*dA*dT*dG*dT*kG*kG*k[5mC]; antisense) [compound 1200798],77 % UTC,44 % UTC,17 % UTC,7 % UTC,7.00
1095481 (kT*kG*dA*dG*dG*dT*dA*dT*dA*dA*d[5mC]*dT*kG*eG*kG*e[5mC]) [compound 1095481],73 % UTC,47 % UTC,16 % UTC,8 % UTC,7.00
1200796 (kT*kT*kA*dG*dA*mG*dT*dA*dT*dG*dT*dG*dG*k[5mC]*kA*kA; antisense) [compound 1200796],69 % UTC,47 % UTC,25 % UTC,12 % UTC,7.00
1198406 (kG*d[5mC]*dT*dT*dT*dG*dG*dA*dA*dG*dA*kT*e[5mC]*kT*eG*kA; antisense) [compound 1198406],70 % UTC,57 % UTC,31 % UTC,16 % UTC,6.70
